# In patent publication US9072751B2, “Na/K-ATPase ligand” (priority 2006, dated 2015):
# Key:
# [1] = Plasma MBG and aldosterone 4 weeks after MBG minipump infusion in rats; type: in vivo, Sprague-Dawley rats; settings: mean ± SEM
# Protocol: (§1) Male, Sprague-Dawley rats were used for all of the studies. All of the animal experimentation described in the article was conducted in accordance with the National Institutes of Health Guide for the Care and use of Laboratory Animals using protocols approved by the Medical University of Ohio Institutional Animal Use and Care Committee.
# (§2) Briefly, Sprague-Dawley rats weighing.apprxeq.250 g at the time of surgery were subjected to either sham surgery with no MBG infusion (Sham), sham surgery with placement of a minipump infusing MBG at 10 μg/kg per day (MBG), PNx, and PNx after immunization against MBG (PNx-IM). MBG of extremely high purity (>99%) was isolated from the venom of Bufa marinas by Kennedy et al. In addition to these maneuvers, a group of PNx animals was subjected to adrenalectomy as well (PNx-ADx).
# (§3) (determined after extraction on a C-18 column using DELPHIA as described previously), aldosterone (determined with ELISA kit 10004377, Cayman Chemical) and cardiac immunohistochemistry (vida infra) were assessed 4 weeks after surgery.
# Na/K-ATPase = target: T1, Na/K-ATPase (Rattus norvegicus, UniProt P06685); test: Ouabain sensitive 86Rb uptake in cardiac fibroblasts; type: cell-based
# T1 construct: In vitro studies were then pursued with cultured isolated cardiac fibroblasts; endogenous in cells; host or cells: primary isolated cardiac fibroblasts in culture
# Protocol: To further examine the molecular basis of this cardiac fibrosis, isolated cardiac fibroblasts were subjected to increase doses of MBG (10^−10, 10^−9, and 10^−8 M). […] Using collagenase digestion, we observed that the vast majority of the proline incorporation was into collagen. Using standardized RT-PCR, we observed a doubling of mRNA for collagen-1 at 24 hours in response to 10 nM of MBG.
# Representative Western blot for procollagen and quantitative densitometric data obtained in response to different doses of (a) MBG (all N=10), (b) MBG 10 nM contrasted with different doses of ouabain (0.1 to 100 nM) and digoxin (10 nM; all N=8). c, ouabain sensitive Rb uptake as a function of MBG and ouabain concentration (N=4 at each concentration for both MBG and ouabain; data expressed as fraction of control). d, relative proline incorporation in the supernatant and matrix, both will and without collagenase digestion (total). Each group (controls and different doses of MBG) contains N=7 replicants. The difference between the total and after collagenase digestion is reported as collagen. […] Bars on quantitative graphs represent the mean.+−.SEM. *P<0.05 and **P<0.01 vs control.
# dermal fibroblasts = test: Collagen expression in human dermal fibroblasts; type: cell-based; settings: 5 or 10 nM
# From the text: We next examined whether skin fibroblasts lines had similar response. This was done with dermal fibroblasts kindly provided by Dr. Bashar Kahaleh. […] The magnitude of this response is illustrated by comparison to maximal doses of TGFβ, the “classic” stimulus for fibrosis (see below). In addition, we observed that an immortalized fibroblast line responded similarly to MBG, ouabain and digoxin.
# Response of dermal fibroblasts to MBG as compared with TGF beta. Note that increase in collagen expression in MBG is approximately 10 fold with 5 or 10 nM MBG.
# [2] = test system: TGF-β, Smad 2/3, Smad 4, pSmad 2/3; test: TGF-β, Smad 2/3, Smad 4, pSmad 2/3 expression in fibroblasts (Western blot); type: cell-based, rat; settings: 24 hours, 1 and 10 nM
# From the text: To further examine the molecular mechanisms by which cardiotonic steroids induce collagen production in fibroblasts, we examined the effects of MBG on TGF-β expression, as well as the expression of Smad 2/3, Smad 4, and pSmad 2/3. […] Next, we examined whether TGF-β induced collagen production and whether there was synergism between TGF-β and MBG. […] However, it is important to point out that we never completely serum starve the primary cultures, and because serum is always present, some TGF-β is always present.
# The effect of 24 hours of MBG (1 and 10 nM) on TGF-β, Smad 2/3, Smad 4, and pSmad 2/3 expression determined by Western blot. b and c, effects of 24 hours of MBG (10 nM), TGFβ(5 ng/mL), and the TGF-β receptor antagonist SB431542 ([…] on procollagen-1 expression (Western blot) and radiolabeled proline incorporation, respectively also were carried out. SB431542 was added 2 hours before exposure to either TGFβ or MBG (total of 26-hour exposure). Each bar represents the mean.+−.SEM of 6 to 8 determinations. *P<0.05, **P<0.01 vs. control.
# Sprague-Dawley rats = test: Blood pressure, left ventricular hemodynamics (Millar catheter) and heart size 4 weeks after MBG infusion; type: in vivo
# Protocol: as §1, §2, §3
# In the current in vivo studies we observed that MBG levels were increased in PNx- and MBG-treated rats compared with sham-operated controls. […] Using the Millar pressure/volume sensor catheter rather than echocardiography in our previous report, we observed that PNx induced decreases in end systolic volume and end diastolic volume, as well as increased ejection fraction compared with sham-operated controls. The end systolic volume and end diastolic volume were greater, and the ejection factor values were lower in PNX-IM as compared with PNx. […] Using pressure volume loops generated during vena cava occlusions, we noted that the end diastolic pressure volume relationship (an inverse measurement of passive compliance) was increased in PNx- and MBG-treated animals compared with controls, whereas […] ha a lower end diastolic pressure volume relationship than PNx.
# [3] = MBG infusion, 4 weeks, mean ± SEM
structure (smiles),measurement,setting,value
"C[C@]12CC[C@H](O)C[C@@]1(O)CC[C@@H]1[C@@H]2CC[C@]2(C)[C@@H](c3ccc(=O)oc3)C[C@H]3O[C@]132 [MBG, marinobufagenin]",Plasma MBG,[1]; MBG infusion 10 μg/kg per day by minipump,484 ± 47 pmol/L
same,Plasma aldosterone,[1]; MBG infusion 10 μg/kg per day,205 ± 35 pg/mL
same,Threshold for inducing collagen expression relative to doses with detectable effects on 86Rb uptake,Na/K-ATPase,log units below
same,Increase in collagen expression,dermal fibroblasts,approximately 10 fold
same,"TGF-β, Smad 2/3, Smad 4, pSmad 2/3 expression in vitro",[2],did not observe significant changes
same,Ejection fraction,Sprague-Dawley rats; [3],68 ± 2 %
same,End diastolic volume,Sprague-Dawley rats; [3],162 ± 14 µL
same,End systolic volume,Sprague-Dawley rats; [3],60 ± 6 µL
same,Heart rate (Tall cuff measurements),Sprague-Dawley rats; [3],367 ± 9 bpm
same,Heart weight/body weight ratio,Sprague-Dawley rats; [3],2.8 ± 0.1 g/kg
same,Systolic blood pressure (Tall cuff measurements),Sprague-Dawley rats; [3],136 ± 4 mm Hg
same,EDPVRX1000,"Sprague-Dawley rats; end diastolic pressure volume relationship, MBG infusion, 4 weeks, mean ± SEM",41 ± 6 mm Hg/μL
same,τ,"Sprague-Dawley rats; time constant of isovolumic relaxation, MBG infusion, 4 weeks, mean ± SEM",11.3 ± 0.3 ms
same,Ventricular myocyte cross-sectional area,"Sprague-Dawley rats; trichrome images, MBG infusion vs sham",marked increases
